Experimental data reported in patent publication EP4389751A1, “HETEROCYCLIC COMPOUNDS AND USES THEREOF” (Kumquat Biosciences Inc., priority 2021, dated 2024).
Read-outs that look alike come from different tables or passages of the source.

What was measured:
K-Ras G12S = molecular target: T1, K-Ras G12S (Homo sapiens, UniProt P01116, G12S); test: HTRF assay of the K-Ras / SOS1 interaction; format: biochemical; conditions: IC50 (against K-Ras G12D) to IC50 (against K-Ras G12S)
T1 construct: made in house; host or cells: E. coli (e.g., BL21 (DE3))
In short: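 Compounds (duplicates, 10 µM to 0.01 µM) were incubated ≥~10 min with Eu-labelled GST-K-Ras G12S and XL665-labelled His-hSOS1 in HEPES pH 7.4 buffer containing NaCl, DTT, BSA and Igepal. Disruption measured as HTRF emission ratio 665/620 nm, fitted to IC50.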

[1] = molecular target: T2, KRAS protein (His-tagged GDP-loaded G12S 1-169) (Homo sapiens, UniProt P01116, G12S); test: Covalent modification of KRAS protein, intact-protein LC-MS; format: binding; conditions: 24hrs at room temperature, KRAS protein ~2 µM
T2 construct: His-tagged GDP-loaded G12S 1-169
Method: Test compounds are prepared as 10 mM stock solutions in DMSO (Fisher cat#BP231-100). KRAS protein (His-tagged GDP-loaded wildtype 1-169, His-tagged GDP-loaded G12S 1-169 or His-tagged GDP-loaded G12D 1-169) is diluted to ~2 µM in appropriate buffer (e.g., a Hepes buffer at physiological conditions). For testing KRAS modification, compounds are diluted to 50X final test concentration in DMSO in 96-well storage plates. 2 µl of the diluted 50X compounds are added to appropriate wells in the PCR plate (Fisher cat#AB-0800). […] of the stock protein solution is added to each well of the 96-well PCR plate. Reactions are mixed carefully. The plate is sealed well with aluminum plate seal, and stored in drawer at room temperature for 24hrs. 5 µl of 2% formic acid (Fisher cat#A1 17-50) in MilliQ H2O is then added to each well followed by mixing with a pipette. The plate is then resealed with aluminum seal and stored until mass spectrometry analysis.
The extent of covalent modification of KRAS proteins was determined by liquid chromatography electrospray mass spectrometry analysis of the intact proteins on a Thermo Q-Exactive Plus mass spectrometer. 20 µl of sample was injected onto a bioZen 3.6 µm Intact C4 column (Phenomenex cat#00B-4767-AN) placed in a column oven set to 40°C and separated using a suitable LC gradient from -20% to ~60% solvent B. Solvent A was 0.1% formic acid and solvent B was 0.1% formic acid in acetonitrile. HESI source settings were set to 40, 5 and 1 for the sheath, auxiliary and sweep gas flow, respectively. The spray voltage was 4 kV, and the capillary temperature was 320°C. S-lens RF level was 50 and auxiliary gas heater temperature was set to 200°C. The mass spectrometry was acquired using a scan range from 650 to 1750 m/z using positive polarity at a mass resolution of 70,000, AGC target of 1e6 ions and maximum injection time of 250ms. The recorded protein mass spectrum was deconvoluted from the raw data file using Protein Deconvolution v4.0 (Thermo). The protein mass and adduct masses were exported with their peak intensities. The peak intensities for the unmodified and modified protein were used to calculate the percent covalent modification of the KRAS protein based on the following equation: %KRAS protein modification = ((KRAS-compound) / (KRAS) + (KRAS-Compound)) *100.

GP2D cells = test: Cell proliferation assay (CellTiter-Glo), K-Ras G12D cells; format: cell-based; conditions: read-out: Inhibition of GP2D Cells (IC50)
In short: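 CellTiter-Glo luminescence, taken roughly 5 days after dosing, measured growth of G12D-mutant GP2D cells in DMEM/2 mM glutamine/10% FBS. Compound dilution series (e.g., 9 points, 3-fold) added the day after plating. Four-parameter fitting gave IC50.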

SMILES | Ratio of IC50 KRAS G12D vs. IC50 KRAS G12S (K-Ras G12S) | % G12S Modification at 24 hr. [1] | IC50 (GP2D cells; GP2D cells (K-Ras G12D)) [µM] | IC50 (GP2D cells; GP2d) [µM]
N#Cc1cccn1C(=O)N1CCN(c2nc(OC[C@@]34CCCN3C[C@H](F)C4)nc3c(F)c(-c4ccc(F)c5sc(N)nc45)c(Cl)cc23)CC(F)(F)C1 [Compound A114, 1-(4-(7-(2-amino-7-fluorobenzo[d]thiazol-4-yl)-6-chloro-8-fluoro-2-(((2R,7aS)-2-fluorotetrahydro-1H-pyrrolizin-7a(5H)-yl)methoxy)quinazolin-4-yl)-6,6-difluoro-1,4-diazepane-1-carbonyl)-1H-pyrrole-2-carbonitrile] | A (A: indicates that the ratio of IC50 against KrasG12D vs. IC50 against KrasG12S is 1-fold or greater) | +++ (+++ indicates greater than 20% labelling) | – | –
Nc1nc2c(-c3c(Cl)cc4c(N5CCCC6(CN(C(=O)n7cncn7)CCO6)C5)nc(OC[C@@]56CCCN5C[C@H](F)C6)nc4c3F)ccc(F)c2s1 (stereo partly drawn) [Compound A125, (8-(7-(2-amino-7-fluorobenzo[d]thiazol-4-yl)-6-chloro-8-fluoro-2-(((2R,7aS)-2-fluorotetrahydro-1H-pyrrolizin-7a(5H)-yl)methoxy)quinazolin-4-yl)-1-oxa-4,8-diazaspiro [5.5]undecan-4-yl)(1H-1,2,4-triazol-1-yl)methanone] | A (A: indicates that the ratio of IC50 against KrasG12D vs. IC50 against KrasG12S is 1-fold or greater) | ++ (++ indicates between about 1%- 20% labelling) | – | –
N#Cc1c(N)sc2c(F)ccc(-c3ncc4c(N5CCOC6(CN(C(=O)n7cncn7)C6)C5)nc(OC[C@@]56CCCN5C[C@H](F)C6)nc4c3F)c12 [Compound A161, 4-(4-(2-(1H-1,2,4-triazole-1-carbonyl)-5-oxa-2,8-diazaspiro[3.5]nonan-8-yl)-8-fluoro-2-(((2R,7aS)-2-fluorotetrahydro-1H-pyrrolizin-7a(5H)-yl)methoxy)pyrido[4,3-d]pyrimidin-7-yl)-2-amino-7-fluorobenzo[b]thiophene-3-carbonitrile] | A (A: indicates that the ratio of IC50 against KrasG12D vs. IC50 against KrasG12S is 1-fold or greater) | +++ (+++ indicates greater than 20% labelling) | – | –
N#Cc1c(N)sc2c(F)ccc(-c3c(Cl)cc4c(OC5CCCCN(C(=O)n6cncn6)C5)nc(OC[C@@]56CCCN5C[C@H](F)C6)nc4c3F)c12 (stereo partly drawn) [Compound A169, 4-(4-((1-(1H-1,2,4-triazole-1-carbonyl)azepan-3-yl)oxy)-6-chloro-8-fluoro-2-(((2R,7aS)-2-fluorotetrahydro-1H-pyrrolizin-7a(5H)-yl)methoxy)quinazolin-7-yl)-2-amino-7-fluorobenzo[b]thiophene-3-carbonitrile] | A (A: indicates that the ratio of IC50 against KrasG12D vs. IC50 against KrasG12S is 1-fold or greater) | +++ (+++ indicates greater than 20% labelling) | – | –
Nc1nc2c(-c3c(Cl)cc4c(N5CC6CCC(C5)N6C(=O)Nc5ncccn5)nc(OC[C@@]56CCCN5C[C@H](F)C6)nc4c3F)ccc(F)c2s1 [Compound A274, 3-(7-(2-amino-7-fluorobenzo[d]thiazol-4-yl)-6-chloro-8-fluoro-2-(((2R,7aS)-2-fluorotetrahydro-1H-pyrrolizin-7a(5H)-yl)methoxy)quinazolin-4-yl)-N-(pyrimidin-2-yl)-3,8-diazabicyclo[3.2. 1]octane-8-carboxamide] | A (A: indicates that the ratio of IC50 against KrasG12D vs. IC50 against KrasG12S is 1-fold or greater) | – | ≤ 1 | –
Nc1nc2c(-c3c(Cl)cc4c(N[C@@H]5C[C@H]6CC[C@@H](C5)N6C(=O)n5cncn5)nc(OC[C@@]56CCCN5C[C@H](F)C6)nc4c3F)ccc(F)c2s1 [Compound A286, ((1R,3s,5S)-3-((7-(2-amino-7-fluorobenzo[d]thiazol-4-yl)-6-chloro-8-fluoro-2-(((2R,7aS)-2-fluorotetrahydro-1H-pyrrolizin-7a(5H)-yl)methoxy)quinazolin-4-yl)amino)-8-azabicyclo[3.2.1]octan-8-yl)(1H-1,2,4-triazol-1-yl)methanone] | A (A: indicates that the ratio of IC50 against KrasG12D vs. IC50 against KrasG12S is 1-fold or greater) | – | – | 1 to 10
Nc1nc2c(-c3c(Cl)cc4c(N5CCC56CCN(C(=O)n5cncn5)CC6)nc(OC[C@@]56CCCN5C[C@H](F)C6)nc4c3F)ccc(F)c2s1 [Compound A288, (1-(7-(2-amino-7-fluorobenzo[d]thiazol-4-yl)-6-chloro-8-fluoro-2-(((2R,7aS)-2-fluorotetrahydro-1H-pyrrolizin-7a(5H)-yl)methoxy)quinazolin-4-yl)-1,7-diazaspiro[3.5]nonan-7-yl)(1H-1,2,4-triazol-1-yl)methanone] | A (A: indicates that the ratio of IC50 against KrasG12D vs. IC50 against KrasG12S is 1-fold or greater) | – | 1 to 10 | –
Nc1nc2c(-c3c(Cl)cc4c(NC5CCN(C(=O)n6cc(F)cn6)CC5)nc(OC[C@@]56CCCN5C[C@H](F)C6)nc4c3F)ccc(F)c2s1 [Compound A291, (4-((7-(2-amino-7-fluorobenzo[d]thiazol-4-yl)-6-chloro-8-fluoro-2-(((2R,7aS)-2-fluorotetrahydro-1H-pyrrolizin-7a(5H)-yl)methoxy)quinazolin-4-yl)amino)piperidin-1-yl)(4-fluoro-1H-pyrazol-1-yl)methanone] | A (A: indicates that the ratio of IC50 against KrasG12D vs. IC50 against KrasG12S is 1-fold or greater) | – | 1 to 10 | –
Nc1nc2c(-c3c(Cl)cc4c(N5CCC6CN(C(=O)n7cncn7)CC6C5)nc(OC[C@@]56CCCN5C[C@H](F)C6)nc4c3F)ccc(F)c2s1 (stereo partly drawn) [Compound A294, (5-(7-(2-amino-7-fluorobenzo[d]thiazol-4-yl)-6-chloro-8-fluoro-2-(((2R,7aS)-2-fluorotetrahydro-1H-pyrrolizin-7a(5H)-yl)methoxy)quinazolin-4-yl)octahydro-2H-pyrrolo[3,4-c]pyridin-2-yl)(1H-1,2,4-triazol-1-yl)methanone] | A (A: indicates that the ratio of IC50 against KrasG12D vs. IC50 against KrasG12S is 1-fold or greater) | – | 1 to 10 | –
N#Cc1c(N)sc2c(F)ccc(-c3c(Cl)cc4c(O[C@H]5C[C@H]6CC[C@@H](C5)N6C(=O)n5cncn5)nc(OC[C@@]56CCCN5C[C@H](F)C6)nc4c3F)c12 [Compound A300, 4-(4-(((1R,3r,5S)-8-(1H-1,2,4-triazole-1-carbonyl)-8-azabicyclo[3.2.1]octan-3-yl)oxy)-6-chloro-8-fluoro-2-(((2R,7aS)-2-fluorotetrahydro-1H-pyrrolizin-7 a(5H)-yl)methoxy)quinazolin-7-yl)-2-amino-7-fluorobenzo[b]thiophene-3-carbonitrile] | A (A: indicates that the ratio of IC50 against KrasG12D vs. IC50 against KrasG12S is 1-fold or greater) | – | – | 1 to 10
Nc1nc2c(-c3c(Cl)cc4c(N5CCC6(CC5)CN(C(=O)n5cnc(F)c5)C6)nc(OC[C@@]56CCCN5C[C@H](F)C6)nc4c3F)ccc(F)c2s1 [Compound A303, (7-(7-(2-amino-7-fluorobenzo[d]thiazol-4-yl)-6-chloro-8-fluoro-2-(((2R,7aS)-2-fluorotetrahydro-1H-pyrrolizin-7a(5H)-yl)methoxy)quinazolin-4-yl)-2,7-diazaspiro[3.5]nonan-2-yl)(4-fluoro-1H-imidazol-1-yl)methanone] | A (A: indicates that the ratio of IC50 against KrasG12D vs. IC50 against KrasG12S is 1-fold or greater) | – | 1 to 10 | –
